One block for each compound: values may come before it.
How the values were obtained:
[1] = molecular target: Cbl-b (36-427 aa truncated form, N-terminus Avi-tag) (Homo sapiens (Human), UniProt Q13191); assay: Cbl-b binding: TR-FRET displacement of BODIPY-FL probe
Outline: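 IC50 from loss of terbium–BODIPY-FL TR-FRET signal as compounds compete off a fluorescent Cbl-b inhibitor probe (1 uM) for 1 h at RT. Protein: N-Avi-tagged human Cbl-b 36-427 on streptavidin-terbium, 20 mM HEPES pH 7.5 buffer.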

[2] = tested on: Human primary T cells; assay: T cell activation: secreted IL-2; assay type: cell-based; conditions: 48 hours, fold over background normalized to Compound 141A; for IL-2 1 nM: 1 nM compound; for IL-2 10 nM: 10 nM compound; for IL-2 100 nM: 100 nM compound
Outline: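 IL-2 values are fold over anti-CD3/CD28 background, normalized to a reference compound and sorted into ranges. They come from supernatants of human pan-T cells captured on anti-CD3-coated plates and exposed 48 h, 37° C., to duplicate compound dilutions, measured with cytometric beads.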

[3] = tested on: Human primary T cells; assay: T cell activation: secreted IFN-y; assay type: cell-based; conditions: 48 hours, fold over background normalized to Compound 141A; for IFN-y 1 nM: 1 nM compound; for IFN-y 10 nM: 10 nM compound; for IFN-y 100 nM: 100 nM compound
Outline: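 Values are binned ranges (A–D) of fold increase over anti-CD3/CD28 background, normalized to a reference compound, for IFN-γ in supernatants measured by bead array. Pan-T cells from donor PBMC or LeukoPaks were stimulated on anti-CD3-coated wells (10 μg/mL coating) in serum-free medium with compound for 48 h at 37 °C.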

[4] = tested on: Human primary T cells; assay: T cell activation: CD69 surface expression by flow cytometry; assay type: cell-based; conditions: fold over anti-CD3 stimulated background normalized to Compound 141A; for CD69 1 nM: 1 nM compound; for CD69 10 nM: 10 nM compound; for CD69 100 nM: 100 nM compound
Outline: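 Read-out is flow-cytometric CD69 surface staining, expressed as fold increase over anti-CD3-stimulated background and normalized to Compound 141A. Human pan T cells from PBMC or LeukoPaks were plated on OKT3-coated wells in serum-free XVivo-15. Compound dilutions were added for 48 h at 37° C, 5% CO2.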

Chain of Cbl-b (36-427 aa truncated form, N-terminus Avi-tag) (Q13191 36-427): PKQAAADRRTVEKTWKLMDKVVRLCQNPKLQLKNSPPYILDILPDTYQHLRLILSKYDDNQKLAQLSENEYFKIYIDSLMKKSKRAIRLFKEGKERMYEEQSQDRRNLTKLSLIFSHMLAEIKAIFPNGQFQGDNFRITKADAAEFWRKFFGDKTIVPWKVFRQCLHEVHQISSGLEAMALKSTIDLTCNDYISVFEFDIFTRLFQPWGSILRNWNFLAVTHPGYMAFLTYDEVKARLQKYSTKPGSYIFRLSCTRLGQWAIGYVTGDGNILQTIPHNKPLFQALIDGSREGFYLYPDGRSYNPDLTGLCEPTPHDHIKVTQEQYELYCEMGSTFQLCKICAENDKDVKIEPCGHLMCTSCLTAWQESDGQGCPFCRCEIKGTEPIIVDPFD

SMILES: CSc1cc(C(CO)N2CCC[C@H](C)C2)cc2c1CN(c1cccc([C@]3(c4nncn4C)C[C@H](C)C3)c1)C2=O (stereo partly drawn) [Compound 170, 6-{2-hydroxy-1-[(3S)-3-methylpiperidin-1-yl]ethyl}-4-(methylsulfanyl)-2-{3-[(1r,3s)-3-methyl-1-(4-methyl-1,2,4-triazol-3-yl)cyclobutyl]phenyl}-3H-isoindol-1-one]
IC50 [1]: 1 to 5 nM
IL-2 1 nM [2]: C (values between 0.10 and 0.30: range “C”)
IL-2 10 nM [2]: C (values between 0.10 and 0.30: range “C”)
IL-2 100 nM [2]: B (values between 0.31 and 0.79: range “B”)
IFN-y 1 nM [3]: B (values between 0.31 and 1.00: range “B;”)
IFN-y 10 nM [3]: B (values between 0.31 and 1.00: range “B;”)
IFN-y 100 nM [3]: B (values between 0.31 and 1.00: range “B;”)
CD69 1 nM [4]: C (values between 0.30 and 0.60: range “C”)
CD69 10 nM [4]: C (values between 0.30 and 0.60: range “C”)
CD69 100 nM [4]: A (values between 0.81 and 1.10: range “A”)

SMILES: CCNc1cc(C2(c3nncn3C)CC(C)C2)cc(N2Cc3c(cc(CN4CCC[C@H](C)C4)cc3C(F)(F)F)C2=O)n1 (stereo partly shown) [Compound 171, 2-[6-(ethylamino)-4-[(1r,3s)-3-methyl-1-(4-methyl-1,2,4-triazol-3-yl)cyclobutyl]pyridin-2-yl]-6-{[(3 S)-3-methylpiperidin-1-yl]methyl}-4-(trifluoromethyl)-3H-isoindol-1-one]
IC50 [1]: 100 to 1000 nM
IL-2 1 nM [2]: C (values between 0.10 and 0.30: range “C”)
IL-2 10 nM [2]: C (values between 0.10 and 0.30: range “C”)
IL-2 100 nM [2]: B (values between 0.31 and 0.79: range “B”)
IFN-y 1 nM [3]: B (values between 0.31 and 1.00: range “B;”)
IFN-y 10 nM [3]: B (values between 0.31 and 1.00: range “B;”)
IFN-y 100 nM [3]: A (fold over background between 1.10 and 2.00: range “A”)
CD69 1 nM [4]: C (values between 0.30 and 0.60: range “C”)
CD69 10 nM [4]: C (values between 0.30 and 0.60: range “C”)
CD69 100 nM [4]: X (fold over background values between 1.11 and 1.6: range “X”)

SMILES: CCNc1cc([C@]2(c3nncn3C)C[C@H](C)C2)cc(N2Cc3ncc(CN4CCC[C@H](C)C4)cc3C2=O)n1 [Compound 176, 6-[6-(ethylamino)-4-[(1r,3s)-3-methyl-1-(4-methyl-1,2,4-triazol-3-yl)cyclobutyl]pyridin-2-yl]-3-{[(3S)-3-methylpiperidin-1-yl]methyl}-7H-pyrrolo[3,4-b]pyridin-5-one]
IC50 [1]: 5.01 to 20 nM
IL-2 1 nM [2]: D (values between 0.01 and 0.09: range “D.”)
IL-2 10 nM [2]: C (values between 0.10 and 0.30: range “C”)
IL-2 100 nM [2]: B (values between 0.31 and 0.79: range “B”)
IFN-y 1 nM [3]: C (values between 0.10 and 0.30: range “C”)
IFN-y 10 nM [3]: B (values between 0.31 and 1.00: range “B;”)
IFN-y 100 nM [3]: B (values between 0.31 and 1.00: range “B;”)
CD69 1 nM [4]: C (values between 0.30 and 0.60: range “C”)
CD69 10 nM [4]: C (values between 0.30 and 0.60: range “C”)
CD69 100 nM [4]: B (values between 0.61 and 0.80: range “B;”)

Now from value to compound, other results behind:

IC50 [1]: 1 to 5 nM
SMILES: CSc1cc(CN2CCC[C@H](C)C2)cc2c1CN(c1cc(C3(Cc4nncn4C)COC3)cc(N)n1)C2=O [Compound 173]
IL-2 1 nM [2]: D (values between 0.01 and 0.09: range “D.”)
IL-2 10 nM [2]: D (values between 0.01 and 0.09: range “D.”)
IL-2 100 nM [2]: D (values between 0.01 and 0.09: range “D.”)
IFN-y 1 nM [3]: C (values between 0.10 and 0.30: range “C”)
IFN-y 10 nM [3]: B (values between 0.31 and 1.00: range “B;”)
IFN-y 100 nM [3]: B (values between 0.31 and 1.00: range “B;”)
CD69 1 nM [4]: C (values between 0.30 and 0.60: range “C”)
CD69 10 nM [4]: C (values between 0.30 and 0.60: range “C”)
CD69 100 nM [4]: C (values between 0.30 and 0.60: range “C”)

IC50 [1]: 5.01 to 20 nM
SMILES: CSc1cc(CN2CCC[C@H](C)C2)cc2c1CN(c1cc([C@]3(c4nncn4C)C[C@H](C)C3)cc(N)n1)C2=O [Compound 174, 2-{6-amino-4-[(1r,3s)-3-methyl-1-(4-methyl-1,2,4-triazol-3-yl)cyclobutyl]pyridin-2-yl}-6-{[(3S)-3-methylpiperidin-1-yl]methyl}-4-(methylsulfanyl)-3H-isoindol-1-one]
IL-2 1 nM [2]: D (values between 0.01 and 0.09: range “D.”)
IL-2 10 nM [2]: D (values between 0.01 and 0.09: range “D.”)
IL-2 100 nM [2]: B (values between 0.31 and 0.79: range “B”)
IFN-y 1 nM [3]: B (values between 0.31 and 1.00: range “B;”)
IFN-y 10 nM [3]: B (values between 0.31 and 1.00: range “B;”)
IFN-y 100 nM [3]: B (values between 0.31 and 1.00: range “B;”)
CD69 1 nM [4]: C (values between 0.30 and 0.60: range “C”)
CD69 10 nM [4]: C (values between 0.30 and 0.60: range “C”)
CD69 100 nM [4]: B (values between 0.61 and 0.80: range “B;”)

IC50 [1]: 1 to 5 nM
SMILES: CCNc1cc(C2(Cc3nncn3C)COC2)cc(N2Cc3c(SC)cc(CN4CCCCC4)cc3C2=O)n1 [Compound 175, 2-[6-(ethylamino)-4-{3-[(4-methyl-1,2,4-triazol-3-yl)methyl]oxetan-3-yl}pyridin-2-yl]-4-(methylsulfanyl)-6-(piperidin-1-ylmethyl)-3H-isoindol-1-one]
IL-2 1 nM [2]: D (values between 0.01 and 0.09: range “D.”)
IL-2 10 nM [2]: D (values between 0.01 and 0.09: range “D.”)
IL-2 100 nM [2]: C (values between 0.10 and 0.30: range “C”)
IFN-y 1 nM [3]: C (values between 0.10 and 0.30: range “C”)
IFN-y 10 nM [3]: B (values between 0.31 and 1.00: range “B;”)
IFN-y 100 nM [3]: B (values between 0.31 and 1.00: range “B;”)
CD69 1 nM [4]: C (values between 0.30 and 0.60: range “C”)
CD69 10 nM [4]: C (values between 0.30 and 0.60: range “C”)
CD69 100 nM [4]: B (values between 0.61 and 0.80: range “B;”)

IC50 [1]: 1 to 5 nM
SMILES: CCNc1cc(C2(c3nncn3C)CC(C)C2)cc(N2Cc3c(SC)cc(CN4CCC[C@H](C)C4)cc3C2=O)n1 (stereo partly drawn) [Compound 181, 2-[6-(ethylamino)-4-[(1r,3s)-3-methyl-1-(4-methyl-1,2,4-triazol-3-yl)cyclobutyl]pyridin-2-yl]-6-{[(3S)-3-methylpiperidin-1-yl]methyl}-4-(methylsulfanyl)-3H-isoindol-1-one]
IL-2 1 nM [2]: D (values between 0.01 and 0.09: range “D.”)
IL-2 10 nM [2]: C (values between 0.10 and 0.30: range “C”)
IL-2 100 nM [2]: A (between 0.80 and 1.40: range “A”)
IFN-y 1 nM [3]: B (values between 0.31 and 1.00: range “B;”)
IFN-y 10 nM [3]: B (values between 0.31 and 1.00: range “B;”)
IFN-y 100 nM [3]: A (fold over background between 1.10 and 2.00: range “A”)
CD69 1 nM [4]: C (values between 0.30 and 0.60: range “C”)
CD69 10 nM [4]: B (values between 0.61 and 0.80: range “B;”)
CD69 100 nM [4]: X (fold over background values between 1.11 and 1.6: range “X”)

Reference: patent US20250304563A1, “ACTIVATORS OF EFFECTOR T CELLS” (Orum Therapeutics, Inc., priority 2022, published 2025)
